Patent US20230250054A1, “SELECTIVE HISTONE DEACETYLASE 6 INHIBITORS” (The Board of Trustees of the University of Illinois, priority 2020, published 2023)

Key:
[1] = molecular target: T1, HDAC6 (Homo sapiens, UniProt Q9UBN7); test: Fluorescence-based HDAC inhibition assay, HDAC6; format: biochemical; conditions: for LE (ligand efficiency): 1.4 × pIC50/number of heavy atoms; for selectivity over Class IIa isoforms HDAC4, 5, 7, and 9: HDAC6 vs HDAC4, 5, 7 and 9; for LipE (lipophilic ligand efficiency): pIC50 − clog Po/w
T1 construct: our assay that uses approximately 0.6 nM concentration of the full-length enzyme; made in house; host or cells: HEK293/T17 cells, transient transfection
T1 sequence (Q9UBN7 1-1215): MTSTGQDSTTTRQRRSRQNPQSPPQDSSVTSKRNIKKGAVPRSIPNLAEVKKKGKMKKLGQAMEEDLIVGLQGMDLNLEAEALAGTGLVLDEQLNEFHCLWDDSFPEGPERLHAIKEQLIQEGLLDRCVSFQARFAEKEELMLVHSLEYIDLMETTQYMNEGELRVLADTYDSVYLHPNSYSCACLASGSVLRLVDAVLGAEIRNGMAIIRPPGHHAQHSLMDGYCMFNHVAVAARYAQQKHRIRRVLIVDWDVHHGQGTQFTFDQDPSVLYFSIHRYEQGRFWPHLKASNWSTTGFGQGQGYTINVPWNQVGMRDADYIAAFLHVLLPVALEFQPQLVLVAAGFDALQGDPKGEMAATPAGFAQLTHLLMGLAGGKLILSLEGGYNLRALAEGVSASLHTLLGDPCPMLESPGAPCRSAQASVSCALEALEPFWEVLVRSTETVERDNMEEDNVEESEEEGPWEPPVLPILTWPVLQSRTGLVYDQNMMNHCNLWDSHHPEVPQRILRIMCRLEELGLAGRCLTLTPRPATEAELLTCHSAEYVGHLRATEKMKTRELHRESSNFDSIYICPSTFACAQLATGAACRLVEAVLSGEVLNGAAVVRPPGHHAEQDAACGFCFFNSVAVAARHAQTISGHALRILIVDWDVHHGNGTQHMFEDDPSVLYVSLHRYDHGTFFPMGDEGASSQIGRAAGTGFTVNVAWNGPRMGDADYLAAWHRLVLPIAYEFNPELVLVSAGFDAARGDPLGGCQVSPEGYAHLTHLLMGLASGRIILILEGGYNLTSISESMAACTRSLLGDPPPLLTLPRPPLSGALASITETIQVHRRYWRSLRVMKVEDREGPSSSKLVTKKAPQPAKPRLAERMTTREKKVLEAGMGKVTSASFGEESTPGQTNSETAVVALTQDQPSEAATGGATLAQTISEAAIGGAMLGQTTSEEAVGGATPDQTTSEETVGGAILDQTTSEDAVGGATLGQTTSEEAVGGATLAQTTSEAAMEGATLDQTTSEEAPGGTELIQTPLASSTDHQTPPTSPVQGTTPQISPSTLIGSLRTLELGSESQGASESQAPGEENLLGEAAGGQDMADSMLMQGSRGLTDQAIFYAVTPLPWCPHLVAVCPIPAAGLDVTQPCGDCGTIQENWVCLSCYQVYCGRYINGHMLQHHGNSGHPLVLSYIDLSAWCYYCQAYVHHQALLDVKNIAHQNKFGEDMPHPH
Procedure: (§1) Briefly, transiently transfected cells were harvested three days post-transfection and the cell pellets resuspended in a lysis buffer (50 mM Tris, 150 mM NaCl, 10 mM KCl, 2 mM MgCl2, 10% glycerol, 0.2% NP-40, 2 Units/mL benzonase, pH 8) supplemented with a cocktail of protease inhibitors (Roche, Basel, Switzerland). Cells were lysed by sonication (30 W; 3×20 s) on ice, and the cell lysate cleared by centrifugation at 40 000×g for 30 min at 4° C. […] Purified proteins were concentrated to 1 mg/mL, aliquoted, flash-frozen in liquid nitrogen, and stored at −80° C. until further use.
(§2) Briefly, individual HDACs were preincubated with dilution series of tested inhibitors (0-100 μM) in a 384-well plate in the total volume of 40 μL for 10 min at 37° C. in a reaction buffer comprising 50 mM HEPES, 140 mM NaCl, 10 mM KCl, 1 mM TCEP, 0.1% BSA, pH 7.4. Deacetylation reaction was started by the addition of 10 μL of a 10 μM substrate into the HDAC/inhibitor mixture. Following the 30 min incubation at 37° C., the reaction was terminated by the addition of 25 μL of the trypsin solution (4 mg/mL). Fluorescence development by trypsin was carried out at 37° C. for 15 and 60 min for Ac-GAK(Ac)-AMC and Boc-Lys(TFA)-AMC substrate, respectively. […] Non-linear regression analysis was employed to calculate IC50 values using the GraphPad Prism software. […] Reactions without the enzyme or the inhibitor were used to define 0% and 100% of the HDAC activity, respectively.

[2] = molecular target: T2, HDAC3 (Homo sapiens, UniProt O15379); test: Fluorescence-based HDAC inhibition assay, HDAC3; format: biochemical; conditions: for IC50: 10 μM Ac-GAK(Ac)-AMC substrate, mean of two experiments ± SEM
T2 construct: made in house; host or cells: HEK293/T17 cells, transient transfection
Procedure: as §1, §2

[3] = molecular target: T3, HDAC8 (Homo sapiens, UniProt Q9BY41); test: Fluorescence-based HDAC inhibition assay, HDAC8; format: biochemical; conditions: for IC50: 10 μM Boc-Lys(TFA)-AMC substrate, mean of two experiments ± SEM
T3 construct: made in house; host or cells: HEK293/T17 cells, transient transfection
T3 sequence (Q9BY41 1-377): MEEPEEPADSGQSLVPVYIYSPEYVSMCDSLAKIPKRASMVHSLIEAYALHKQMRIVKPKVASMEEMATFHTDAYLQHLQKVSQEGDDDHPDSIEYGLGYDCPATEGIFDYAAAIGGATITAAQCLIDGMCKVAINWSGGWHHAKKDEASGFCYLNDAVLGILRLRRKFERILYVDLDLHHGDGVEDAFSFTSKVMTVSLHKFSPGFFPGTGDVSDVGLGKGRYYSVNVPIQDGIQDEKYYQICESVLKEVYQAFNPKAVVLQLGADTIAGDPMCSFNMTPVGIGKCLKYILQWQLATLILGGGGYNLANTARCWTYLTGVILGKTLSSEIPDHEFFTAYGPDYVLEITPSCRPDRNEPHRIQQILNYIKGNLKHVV
Procedure: as §1, §2

[4] = molecular target: T4, HDAC9 (Homo sapiens, UniProt Q9UKV0); test: Fluorescence-based HDAC inhibition assay, HDAC9; format: biochemical; conditions: for IC50: 10 μM Boc-Lys(TFA)-AMC substrate, mean of two experiments ± SEM
T4 construct: made in house; host or cells: HEK293/T17 cells, transient transfection
Procedure: as §1, §2

[5] = mean with standard error
[6] = 10 μM Ac-GAK(Ac)-AMC substrate, mean of two experiments ± SEM

T2 sequence (O15379 whole entry): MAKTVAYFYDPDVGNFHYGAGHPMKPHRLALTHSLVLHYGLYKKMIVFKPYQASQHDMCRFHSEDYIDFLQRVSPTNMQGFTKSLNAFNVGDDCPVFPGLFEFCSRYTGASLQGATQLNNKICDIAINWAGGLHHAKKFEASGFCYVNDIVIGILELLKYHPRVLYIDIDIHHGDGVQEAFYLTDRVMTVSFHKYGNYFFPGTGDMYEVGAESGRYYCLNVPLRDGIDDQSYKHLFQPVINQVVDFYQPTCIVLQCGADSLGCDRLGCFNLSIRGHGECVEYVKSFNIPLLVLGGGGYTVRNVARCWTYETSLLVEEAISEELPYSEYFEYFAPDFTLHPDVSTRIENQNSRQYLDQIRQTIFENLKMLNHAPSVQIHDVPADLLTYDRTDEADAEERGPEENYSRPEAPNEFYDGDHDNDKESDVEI
T2 sequence (Q9Y618 389-480 partner limits assumed): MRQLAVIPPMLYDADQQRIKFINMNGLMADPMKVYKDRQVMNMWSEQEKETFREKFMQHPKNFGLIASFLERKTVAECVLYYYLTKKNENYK
T4 sequence (Q9UKV0 whole entry): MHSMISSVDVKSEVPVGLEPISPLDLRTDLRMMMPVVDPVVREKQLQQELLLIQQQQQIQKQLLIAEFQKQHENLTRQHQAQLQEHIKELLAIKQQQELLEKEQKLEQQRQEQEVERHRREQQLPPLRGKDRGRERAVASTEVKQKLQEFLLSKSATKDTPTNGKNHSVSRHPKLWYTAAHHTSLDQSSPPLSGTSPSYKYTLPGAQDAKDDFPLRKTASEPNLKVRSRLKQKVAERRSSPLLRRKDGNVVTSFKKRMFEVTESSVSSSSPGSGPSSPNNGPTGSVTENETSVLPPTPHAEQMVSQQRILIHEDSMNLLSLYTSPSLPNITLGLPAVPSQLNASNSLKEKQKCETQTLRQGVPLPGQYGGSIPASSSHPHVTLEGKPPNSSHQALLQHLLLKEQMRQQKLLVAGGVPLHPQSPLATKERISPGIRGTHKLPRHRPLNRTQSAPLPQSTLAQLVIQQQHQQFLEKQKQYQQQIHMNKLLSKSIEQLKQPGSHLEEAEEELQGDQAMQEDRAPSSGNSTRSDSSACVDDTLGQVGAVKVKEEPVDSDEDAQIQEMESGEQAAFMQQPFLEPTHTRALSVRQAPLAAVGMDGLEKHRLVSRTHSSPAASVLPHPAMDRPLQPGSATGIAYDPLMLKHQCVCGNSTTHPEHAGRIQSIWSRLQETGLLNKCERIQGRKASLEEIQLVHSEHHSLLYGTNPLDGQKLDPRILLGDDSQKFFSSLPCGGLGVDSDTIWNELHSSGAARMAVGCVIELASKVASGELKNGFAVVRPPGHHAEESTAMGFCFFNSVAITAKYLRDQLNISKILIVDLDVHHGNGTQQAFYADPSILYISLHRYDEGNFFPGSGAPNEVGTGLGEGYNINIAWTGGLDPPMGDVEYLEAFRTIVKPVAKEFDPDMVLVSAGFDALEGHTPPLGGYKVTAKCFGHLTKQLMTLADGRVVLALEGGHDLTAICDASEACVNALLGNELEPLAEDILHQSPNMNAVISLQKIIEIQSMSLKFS

Structure (SMILES)	SI (HDAC6 selectivity index), HDAC6 [1]	IC50 [1, 6] [nM]	LE (ligand efficiency) [1]	selectivity over Class IIa isoforms HDAC4, 5, 7, and 9 [1]	IC50 ([1]; Table 2) [nM]	LipE (lipophilic ligand efficiency) [1]	SI (HDAC6 selectivity index over HDAC3) [2]	IC50 [2] [nM]	SI (HDAC6 selectivity index over HDAC8) [3]	IC50 [3] [nM]	SI (HDAC6 selectivity index over HDAC9) [4]	IC50 [4] [nM]	Rat liver microsomes (t1/2, min) [5] [min]
NCc1ccc(NC(=O)N(CCCCO)Cc2ccc(C(=O)NO)cc2)cc1 [Compound 6a, 4-((3-(4-(Aminomethyl)phenyl)-1-(4-hydroxybutyl)ureido)methyl)-N-hydroxybenz-amide]	1	0.4	0.47	thousand-fold selectivity	0.4	7.57	880	352 ± 2	1,250	498 ± 58	15,700	6270	177
CCCCN(Cc1ccc(C(=O)NO)cc1)C(=O)Nc1ccc(CN)cc1 [Compound 6b, 4-((3-(4-(Aminomethyl)phenyl)-1-butylureido)methyl)-N-hydroxybenzamide]	1	0.9 ± 0.7	0.47	–	–	6.59	492	443 ± 108	682	614 ± 58	19,200	17300	173
O=C(NO)c1ccc(CN(CCCCO)C(=O)Nc2ccccc2)cc1 [Compound 6c, reference compound]	1	0.5	0.50	thousand-fold selectivity	–	6.98	–	581 ± 18	956	478 ± 97	59,50	29700	198
